Measurements as given in paper PMC7321560 (2020).

Legend:
[1] = system: split dopamine aptamer (aptamer1 + aptamer2) (DNA, aptamer) TTCGCAGGTGTGGAGTGACGTCG/CGACGCCAGTTTGAAGGTTCG; assay: square wave voltammetry (amperometric aptasensor); details: 10 mM Tris; 0.5 μM aptamer2; highest concentration 50 μM
[2] = system: split dopamine aptamer (aptamer1 + aptamer2) (DNA, aptamer) TTCGCAGGTGTGGAGTGACGTCG/CGACGCCAGTTTGAAGGTTCG; assay: organic electrochemical transistor gate potential shift; details: 10 mM Tris; 0.5 μM aptamer2; highest concentration 10 μM; shift under 15 mV or reversed
[3] = system: split dopamine aptamer (aptamer1 + aptamer2) (DNA, aptamer) TTCGCAGGTGTGGAGTGACGTCG/CGACGCCAGTTTGAAGGTTCG; assay: square wave voltammetry, Langmuir fit (amperometric aptasensor); details: 10 mM Tris; 0.5 μM aptamer2; aptamer1 on gold; apparent (transducer-dependent)
[4] = system: split dopamine aptamer (aptamer1 + aptamer2) (DNA, aptamer) TTCGCAGGTGTGGAGTGACGTCG/CGACGCCAGTTTGAAGGTTCG; assay: organic electrochemical transistor gate potential shift, Langmuir fit; details: 10 mM Tris; 0.5 μM aptamer2; aptamer1 on gold gate; apparent (transducer-dependent)

Structure (SMILES)	binding [1]	binding [2]	KD [3] [nM]	KD [4] [nM]
NCCCC(=O)O	no	no	–	–
NCCc1ccc(O)c(O)c1	–	–	5000	0.007
N[C@@H](CCC(=O)O)C(=O)O	no	no	–	–
O=C1O[C@H]([C@@H](O)CO)C(O)=C1O	no	no	–	–
O=c1[nH]c(=O)c2[nH]c(=O)[nH]c2[nH]1	no	no	–	–
